The results in this text go back to US20170266266A1, “Functions of 55 Newfound Proteins and Their Medicinal Application in the Treatment and Prevention of Disease” (priority 2012, published 2017).

Like-named read-outs stand apart in the source and are kept apart here.

In data set [1] the test system is fatty streak lesions in rabbits on high fat diet. The data set is classed as in vivo, rabbit. The following applies: for TC/HDL-C: Atorvastatin group. As for the experimental part: The rabbits were fasted for 12 hrs before the beginning of the experiments. Blood parameters were then tested as the normal level of plasma indicators. A total of 52 rabbits were purchased at different time, four of them were used as normal control and fed with normal diet the whole time during the experiments. […] Plasma concentrations of total cholesterol (TC), […] (TG), low density lipoprotein-cholesterol (LDL-C), very low density lipoprotein-cholesterol (VLDL-C), high density lipoprotein-cholesterol (HDL-C) were quantified by enzymatic assays. TC/HDL-C or ([…] ratios were then determined. Animals were sacrificed under deep anesthesia with sodium pentobarbital 25 mg/kg IV. The entire aorta from the aortic valve to the iliac bifurcation was removed from each rabbit and opened longitudinally. […] Atheromatous lesions were measured without staining Atheromatous lesions were manually traced in the photographs, and the percent area of the atheromatous lesions was calculated. Sample of aorta from animals were homogenated. And the content of lipid was determined.

For data set [2], the system named is atherosclerosis in ApoE knock out mouse on high fat diet. The text has this: 10 ApoE ko mice were fed with regular chow diet and used as negative control group. 50 ApoE ko mice were fed with high fat diet (35% kcal fat, 1% cholesterol) for 8 weeks, and then the plasma samples were collected for lipid profile measurement before the treatment. 50 ApoE ko mice were assigned into 5 groups based on the fasting overnight plasma TC and HDL level.
5.2. Study Timeline: • 23 Dec. 2011: 60 ApoE mice arrived at chempartner and were housed in the animal facility in the building #3 for the acclimation. • 6 Jan. 2012: Measured the body weight for each mouse. 50 mice were fed with high fat diet and 10 mice were fed with normal chow diet. • 2 Mar. 2012: All mice were fasted over night and plasma samples (about 300 ul whole blood) were collected for lipid profile measurement before treatment with RAAS antibody. • 19 Mar. 2012 to 6 Apr. […] 2012: All mice were fasted over night and plasma sample for each mouse (about 300 ul whole blood) was collected for lipid profile measurement after 16 weeks treatment. Blood glucose was also measured for each mouse. • 9 Jul. 2012: The study was terminated after 16 weeks treatment. Measure BW, sacrificed each mouse, dissected the aorta, heart, liver and kidney and fixed them in 4% PFA.
Antibody products were administrated by intraperitoneal injection every two days (Monday, Wednesday, and Friday). and the positive compound was administered by p.o every day.
The body weight was weighed weekly during the period of treatment. The fasting overnight blood glucose was measured at the end of study by Roche glucometer.
About 300 ul of blood sample was collected from the orbital vein for each mouse and centrifuged at 7000 rpm for 5 min at 4E and the plasma lipid profile was measured by Roche Modular automatic biochemistry analyzer in DaAn Medical Laboratory
After RAAS antibody products treatment for 16 weeks, all mice were sacrificed. Measured body weight and collected blood sample for each mouse. Weighed liver weight and saved a tiny piece of liver into 4% paraformaldehyde (PFA) fixation solution for further analysis. At same time, take the photos with heart, lung, aortas and two kidneys.
5.8. Oil Red Staining Procedure: • 1. Sacrificed the mice and dissected the heart, aorta, and arteries under dissecting microscope. • 2. Briefly wash with PBS and fixed in 4% paraformaldehyde (PFA) overnight at 4[…]. • 3. Rinse with 60% isopropanol • 4. Stain with freshly prepared Oil Red O working solution 10 min. • 1). Oil red O stock stain: 0.5% powder in isopropanol • 2). Working solution: dilute with distilled water (3:2) and filter with membrane (0.22 um) • 5. Rinse with 60% isopropanol 10 second. • 6. Dispel the adherent bit fat outside of the aorta under the dissecting microscope. • 7. Cut the vascular wall gently and keep the integrated arteries using the micro scissors. • 8. Unfold the vascular inner wall with the cover slides and fix it by water sealing tablet.
Scanning the glasses slides with the Aperio ScanScope system and analyze with the image proplus software to measure the area of atherosclerotic plaque lesion. The results were expressed as the percentage of the total aortic surface area covered by lesions. The operation procedure of software was briefly described as follow: Converted the sys version photos into JPG version, then calibrated it and subsequently selected the red regions and then calculate the total area automatically by image proplus software.
The results were expressed as the Mean±SEM and statistically evaluated by student's t-test.

Data set [3] has as its system atherosclerosis in New Zealand white rabbit on high fat diet. Particulars: rabbit, in vivo. Here is the method: New Zealand rabbits were adopted in this animal study and divided into 5 groups. They were high dose, medium dose and low dose of treatment, positive and vehicle control. The treatment groups were given APOAI via auricular vein once a week. […] Positive controls were given Liptor daily by p.o. with a dose of 0.45 mg/kg body weight. […] The study duration was 19 weeks. At the end of study, all animals were sacrificed. […] Lipid content was examined in liver and aorta. And liver index was also determined.
The body weight was between 1.8-2.0 kg. The animals were quarantined for 5-10 days with normal diet before study.
Animals were randomly divided into 5 groups including vehicle control, high dose, medium dose, low dose and positive control group. Ten to 14 rabbits were in one group. Each rabbit was fed with 30 gram of high fat diet followed by 120 gram of normal diet with free access to water.
The frequency of dosing was once a week. Dose was 80, 40, 20 mg/kg body weight respectively. Drug was given by intravenous injection via auricular vein with the volume of 5 mL.
5.1 body weight: body weight of each rabbit was determined once a week.
Resulted blood samples were kept still for 2 hours and then spin with 4,000 rpm for 10 min.
Abdomen cavity was opened. Whole blood was taken from heart. Heart was harvested along with 7 cm of aorta.
The aorta was dissected for 0.5 cm from aortic arch, split longitudinally and then kept in cryo-preservation tube for later lipid analysis. One piece of this sample was fixed in formalin for further pathological analysis.
The weight of liver was determined immediately. Two pieces of specimen were cut from hepatic lobe.
Resulted blood samples were kept still for 2 hours.
The aorta was dissected and opened for 7.5 cm from aortic arch longitudinally. Pictures were taken and atherosclerosis changing was analyzed.

Data set [4] has as its system Influenza H1N1 A/WSN/33. The data set is classed as in vivo, BALB/c mice.
In data set [5] the test system is Influenza A/Weiss/43 H1N1 in MDCK cells. Nature of the data set: microbe, parasite or virus in culture. The data set is classed as cell-based.
In data set [6] the test system is 3T3-L1 adipocytes. Nature of the data set: Glucose uptake assay. The data set is classed as cell-based. As for the experimental part: Study Protocol • 1. 3T3-L1 fibroblasts were cultured in DMEM containing 25 mM glucose and 10% bovine calf serum at 37 °C with 5% CO2. • 2. 3T3-L1 fibroblasts were differentiated into adipocytes 2 days post confluent with the same DMEM medium containing 1 ug/ml insulin (Sigma-Aldrich), 1 uM dexamethasone (Sigma-Aldrich), and 0.5 mM isobutyl-1-methylxanthine (Sigma-Aldrich). • 3. Media were replaced with DMEM containing 10% FBS and 1 ug/ml insulin and culture 2 days. • 4. Seed 1×10^5 3T3-L1 adipocytes to 96 wells cell culture plate (DMEM, 10% FBS, 1% PS, 1 ug/ml insulin) • 5. Before experiments, adipocytes were incubated in serum free medium for starvation overnight. • 6. Dilute each sample 100 folds (2 ul primal solution to 198 ul buffer) in corresponding buffer. Add 2 ul of sample primal solution, 100 folds diluted solution and buffer to 198 ul KRPH buffer. • 7. 3T3-L1 adipocytes were washed with KRPH buffer (5 mM Na2HPO4, 20 mM HEPES, pH 7.4, 1 mM MgSO4.1 mM CaCl2, 136 mM NaCl, […], and 1% BSA) three times, Add 90 ul/well KRPH containing human insulin and samples to assay plate, incubate for 30 min at 37[…] and 5% CO2. • 8. Add 10 ul KRPH containing 0.25 uCi 1-[3H]-2-deoxyglucose/well and 50 umol/l 2-deoxyglucose and Incubate 10 min in 95% air/5% CO2 at 37[…] • 9. The transport was stopped by rinsing the cells with cold PBS containing 10 mM glucose for three times. • 10. The adipocytes were lysed in 50 ul 10% KOH for 5 min • 11. Then the aliquots were subjected to scintillation counting using TriCap.

Where [7] appears, read: H1N1 + Oseltamivir, dose printed 0.2/0.4 ml/mouse.

As to `CC(C)c1c(C(=O)Nc2ccccc2)c(-c2ccccc2)c(-c2ccc(F)cc2)n1CC[C@@H](O)C[C@@H](O)CC(=O)O` [Atorvastatin, reference compound], the “lipid con. at dissected aorta” value in data set [1] (Atorvastatin group (n = 4), triglyceride content) was 0.0274 ± 0.006 µmol/mg. Further, the results for the TC/HDL-C in data set [1] (Wk 0 (start of high fat diet)), in data set [1] (Wk 10 (before Atorvastatin administration)) and in data set [1] (Wk 18 (end of Atorvastatin administration)) were 1.844, 4.511 and 6.811, respectively. Besides, the liver weight result in data set [2] (40 mg/kg, 16 weeks treatment) is recorded as “significantly reduced”. Further, the TC net change entry in data set [2] (16 week treatment) is “not reduce the TC net change”. Further, in data set [2] (16 week treatment), the “net change of LDL” value is on record as “no significant difference in net change of LDL”. For the same compound, the “plaque area and percentage of plaque area in total inner vascular area” value in data set [2] (16 weeks) is recorded as “mild trend to decrease percentage of plaque area”. Also, the “plaque lesion area of aorta” value in data set [2] (16 weeks treatment, atorvastatin 40 mg/kg) is reported as “did not affect the plaque lesion area of aorta”.

With `CC(C)c1c(C(=O)Nc2ccccc2)c(-c2ccccc2)c(-c2ccc(F)cc2)n1CC[C@@H](O)C[C@@H](O)CC(=O)O` [Liptor, reference compound], in data set [3], the “calcification, pathological examination” value was “one animal with calcification”.

Take `CCOC(=O)C1=C[C@@H](OC(CC)CC)[C@H](NC(C)=O)[C@@H](N)C1` [Osletamivir, Oseltamivir]: the “mice survived to the end of experiment” value in data set [4] (1 mg/kg orally twice daily for 8 days) is reported as 4 out of 5. Further, in data set [4] (setting [7]), the “Mean day to death ± S.D.” value was more than 14 ± 0.0 days and the Survivor/total was 4/4. The same compound displayed a body weight drop in data set [4] (mouse, in vivo) of less than 15%. Also, the EC50 in data set [5] (A/Weiss/43 H1N1, MDCK cells, read-out: EC50) was found to be 890 nM. Also, the EC50 in data set [5] (Influenza A/Weiss/43 H1N1 in MDCK cells, MTT after 72 hours, positive control, read-out: anti H1N1 EC50s) came to 890 nM.

Consider insulin, for which the EC50 in data set [6] (dose response AFOD 1 / AFOD RAAS 109, run N1) came to 7.08 nM; in data set [6] (dose response AFOD 1 / AFOD RAAS 109, run N2), 8.64 nM; in data set [6] (dose response AFOD RAAS 107 / AFOD KH, run N1), 3.09 nM; in data set [6] (dose response AFOD RAAS 107 / AFOD KH, run N2), 10.2 nM; in data set [6] (dose response AFOD RAAS 107 / AFOD KH, run N3), 4.17 nM.
